According to patent US7074812B2, “Development of muscle mass in a mammal” (Nutraleutical Development Corporation, priority 2002, dated 2006):
Where two headings read alike, the source gives them in different places.

Experiments:
[1] = test system: healthy male mice; details: 60 micrograms nicotine/ml drinking water
From the text: To study the effects of nicotine in the diet of mice in combination with exercise, 34 mice were divided into two equal groups. The diet of one group of mice was supplemented with nicotine added to the drinking water and the other group had plain water. Both groups received the same chow and water freely.
The experiment was a double-blind investigative study including a total of 34 healthy male mice that were approximately 9 weeks old, weighing approximately 35 grams. The mice were received one week prior to the start of the study to allow for a week of acclimation to the study site and the handlers. Because mice are active when it is dark and sleep when it is light, an automatic lighting system (12 hour dark/12 hour light) was set up for the duration of the study. The dark cycle was from 9 pm to 9 am and the light cycle from 9 am to 9 pm. The mice were subjected to a 3 week weighted exercise regimen on a treadmill wheel.
The 34 mice were divided in 2 groups of 17 mice each. Group 1 (nicotine treatment) received water laced with nicotine containing 60 micrograms nicotine/ml water and 10 mg saccharine tablet or pinch of a sugar substitute powder. The sugar substitute served to mask the bitter taste of nicotine in the water. Group 2 (placebo or control) followed the same weight exercise regimen as the nicotine treatment group. Their drinking water was plain water with the same amount of saccharine or sugar substitute as in Group 1. Each mouse had access to its water ad libitum daily during the study period, regardless of the group. Weekly water consumption was measured.
Mice in both groups were subjected to a weight/exercise regimen in the morning at the end of the dark cycle around 8:00 am. Weights were affixed to each animal at the beginning of the exercise. The weights were approximately 10% of body weight measured at Day -1 of the study, and adjusted based on body weight, measured weekly. The mice were exercised for 15 minutes per day or until exhaustion, 5 days a week for 3 weeks on a Mouse Forced Exercise Walking/Running Wheel System (Model 80800, Lafayette Instrument, North Lafayette, Ind. 47903). The largest part of the upper hind muscle of the mice was measured with a dial caliper every week. Two measurements on each leg were taken and the average was calculated.

[2] = test system: males aged 30–59 years old
Protocol: In order to determine the effects of a nicotine supplement on human subjects, a double blind placebo controlled study was conducted. The study tested 32 males aged 30–59 years old. Each participant needed to have been weight-lifting and exercising on a consistent basis for at least one full year prior to the study. The study required each of the 32 males to remain consistent with their current exercise program (minimum of 3×'s per week), required not to add any new exercises to their current program, not add any new supplements to their diet during the six week study and to take the nicotine supplement 30 minutes prior to exercise. The nicotine supplement was 3 micrograms of nicotine in a standard 300 mg capsule containing polyethylene gycol (PEG) as a vehicle. The placebo capsule was identical in all aspects but contained no active (nicotine) ingredients.
The 32 males were subdivided into 4 groups, 2 placebo groups (8 took 1 capsule and 8 took 2 capsules with no active nicotine ingredients prior to exercise). In the other two groups (active), 8 subjects took 3 micrograms of nicotine and 8 took 6 micrograms of nicotine prior to exercise. The individuals were tested in the beginning and conclusion of the study in the following areas: (1) overall body fat/lean muscle ratio (ELG impedance test was used, which is 98% accurate compared to skinfold testing); (2) biceps; (3) upper leg muscle mass; and (4) 10 exercise repetition maximum, for both upper and lower body strength test (bench press and leg press). Participant workouts were logged by each individual in their own notebooks, to ensure consistency and compliance

[3] = 1 capsule (3 micrograms of nicotine), n = 8
[4] = 2 capsules (6 micrograms of nicotine), n = 8
[5] = Nicotine 1 or 2 capsules pooled, n = 16
[6] = individual subjects, six-week study

CN1CCCC1c1cccnc1 (stereo not shown) [Nicotine, nicotine]
increase in leg diameter versus control group, overall ([1]; 3 weeks): significantly greater increase in leg diameter | average increase of leg diameter, average of day 7, 14 and 21 compared with day 0 ([1]; control 0.5 mm): 1.7 mm | average increase of leg diameter compared to day 0 ([1]; day 7, control 0.6 mm): 1.6 mm | average increase of leg diameter compared to day 0 ([1]; day 14, control 2.1 mm): 2.8 mm | increase of leg diameter compared to day 0 ([1]; day 21, control 1.1 mm decrease): 0.7 mm | Upper-body Strength, Change Over Study (Post-Pre), Median (Range) ([2]; 1 capsule (3 micrograms of nicotine) prior to exercise, n = 8, bench press 10 repetition maximum): 10.00 (5.00, 20.00) | Bicep Circumference, Change Over Study (Post-Pre), Median (Range) [2, 3]: 0.45 (−0.20, 2.00) cm | Body Fat %, Change Over Study (Post-Pre), Median (Range) [2, 3]: −0.65 (−1.90, 0.70) % | Body Mass Index, Change Over Study (Post-Pre), Median (Range) [2, 3]: −0.13 (−0.79, 0.45) | Lean Mass %, Change Over Study (Post-Pre), Median (Range) [2, 3]: 0.65 (−0.70, 1.90) % | Quadricep Circumference, Change Over Study (Post-Pre), Median (Range) [2, 3]: 0.00 (−2.00, 2.50) cm | Weight, Change Over Study (Post-Pre), Median (Range) [2, 3]: −1.00 (−6.00, 3.00) lbs | Lower-body Strength, Change Over Study (Post-Pre), Median (Range) ([2]; 1 capsule (3 micrograms of nicotine), n = 8, leg press 10 repetition maximum): 65.00 (15.00, 90.00) | Upper-body Strength, Change Over Study (Post-Pre), Median (Range) ([2]; 2 capsules (6 micrograms of nicotine) prior to exercise, n = 8, bench press 10 repetition maximum): 10.00 (5.00, 20.00) | Bicep Circumference, Change Over Study (Post-Pre), Median (Range) [2, 4]: 0.63 (−1.50, 1.70) cm | Body Fat %, Change Over Study (Post-Pre), Median (Range) [2, 4]: −1.05 (−5.90, 0.10) % | Body Mass Index, Change Over Study (Post-Pre), Median (Range) [2, 4]: −0.08 (−1.22, 0.94) | Lean Mass %, Change Over Study (Post-Pre), Median (Range) [2, 4]: 1.05 (−0.10, 5.90) % | Quadricep Circumference, Change Over Study (Post-Pre), Median (Range) [2, 4]: 0.00 (−2.00, 3.00) cm | Weight, Change Over Study (Post-Pre), Median (Range) [2, 4]: −0.50 (−8.00, 6.75) lbs | Lower-body Strength, Change Over Study (Post-Pre), Median (Range) ([2]; 2 capsules (6 micrograms of nicotine), n = 8, leg press 10 repetition maximum): 80.00 (20.00, 320.00) | Bicep Circumference, Change Over Study (Post-Pre), Median (Range) [2, 5]: 0.45 (−1.50, 2.00) cm | Body Fat %, Change Over Study (Post-Pre), Median (Range) [2, 5]: −0.95 (−5.90, 0.70) % | Body Mass Index, Change Over Study (Post-Pre), Median (Range) [2, 5]: −0.11 (−1.22, 0.94) | Lean Mass %, Change Over Study (Post-Pre), Median (Range) [2, 5]: 0.95 (−0.70, 5.90) % | Lower-body Strength, Change Over Study (Post-Pre), Median (Range) [2, 5]: 70.00 (15.00, 320.00) | Quadricep Circumference, Change Over Study (Post-Pre), Median (Range) [2, 5]: 0.00 (−2.00, 3.00) cm | Upper-body Strength, Change Over Study (Post-Pre), Median (Range) [2, 5]: 10.00 (5.00, 20.00) | Weight, Change Over Study (Post-Pre), Median (Range) [2, 5]: −0.75 (−8.00, 6.75) lbs | subjects who noted an increase in overall endurance, leg strength and a strong thermogenic effect ([2]; active (nicotine) group, six-week study): 13 of the 16 | individuals who made significant changes in either body, strength levels or muscle mass or in all three test areas ([2]; active (nicotine) group, placebo five of the sixteen): Fifteen of the sixteen | change of overall body fat, one subject ([2]; individual subject, six-week study): 32% | increase of leg strength, five subjects [2, 6]: over 25% | increase of leg strength, two of the five subjects [2, 6]: 40%
